Measurements from ChEMBL document CHEMBL4334500, “Macrocyclic Diterpenoids from Euphorbia helioscopia and Their Potential Anti-inflammatory Activity” (J Nat Prod, 2019).
Calls of active or inactive are those of the source. The rule behind the calls is not given here.

Columns and labels:
RAW264.7 [1] = test: Antiinflammatory activity in mouse RAW264.7 cells assessed as decrease in LPS-induced IL-6 mRNA expression after 6 to 24 hrs by FQ-PCR analysis; assay type: functional, cell-based
RAW264.7 [2] = test: Cytotoxicity against mouse RAW264.7 cells at 6.25 to 100 uM measured after 24 hrs by MTT assay; assay type: cell-based; settings: raw264.7, 24 h
[3] = molecular target: Transcription factor p65 (Mus musculus) (UniProt Q04207); test: Inhibition of LPS-induced NF-kappaB p65 translocation in mouse RAW264.7 cells at 3 to 12 uM incubated for 2 hrs by DAPI staining based immunofluorescence assay; assay type: cell-based
RAW264.7 [4] = test: Antiinflammatory activity in mouse RAW264.7 cells assessed as effect on LPS-induced TNF-alpha mRNA expression after 12 to 24 hrs by FQ-PCR analysis; assay type: functional, cell-based
RAW264.7 [5] = test: Antiinflammatory activity in mouse RAW264.7 cells assessed as decrease in LPS-induced IL-6 secretion after 24 hrs by ELISA; assay type: functional, cell-based
RAW264.7 [6] = test: Antiinflammatory activity in mouse RAW264.7 cells assessed as decrease in LPS-induced TNF-alpha secretion after 24 hrs by ELISA; assay type: functional, cell-based
RAW264.7 [7] = test: Anti-inflammatory activity in mouse RAW264.7 cells assessed as inhibition of LPS-stimulated NO production preincubated with LPS and measured after 20 hrs by Griess reagent-based assay; assay type: functional, cell-based
RAW264.7 [8] = test: Anti-inflammatory activity in mouse RAW264.7 cells assessed as inhibition of LPS-stimulated NO production at 15 uM preincubated with LPS and measured after 20 hrs by Griess reagent-based assay relative to control; assay type: functional

Sequence of Transcription factor p65 (Mus musculus) (Q04207 whole entry): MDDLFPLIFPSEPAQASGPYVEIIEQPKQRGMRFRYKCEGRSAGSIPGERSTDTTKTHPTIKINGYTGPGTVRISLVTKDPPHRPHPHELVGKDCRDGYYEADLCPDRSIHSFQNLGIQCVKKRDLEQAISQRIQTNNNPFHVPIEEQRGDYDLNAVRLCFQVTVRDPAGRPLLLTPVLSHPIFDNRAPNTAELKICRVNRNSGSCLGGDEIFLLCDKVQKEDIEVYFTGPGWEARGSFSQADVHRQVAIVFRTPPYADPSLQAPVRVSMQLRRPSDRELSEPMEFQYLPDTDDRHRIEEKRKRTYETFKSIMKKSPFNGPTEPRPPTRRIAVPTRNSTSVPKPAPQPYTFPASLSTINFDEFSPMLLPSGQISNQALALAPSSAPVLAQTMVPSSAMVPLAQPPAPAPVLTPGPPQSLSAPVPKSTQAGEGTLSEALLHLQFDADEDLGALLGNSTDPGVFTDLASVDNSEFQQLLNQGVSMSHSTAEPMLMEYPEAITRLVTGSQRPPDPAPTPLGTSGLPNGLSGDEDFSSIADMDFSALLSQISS

Compound	Activity (RAW264.7 [2])	inhibition (RAW264.7 [7])	also measured
CC(=O)O[C@@H]1[C@@H](C)[C@H](C=C(C)C)C(=O)C[C@@H](OC(C)=O)/C(C)=C/[C@H]2[C@@H](OC(=O)c3ccccc3)[C@H](C)C[C@]12OC(C)=O	Non-Toxic	–	Activity (RAW264.7 [1]): Dose-dependent effect; inhibition [3]: Active; Activity (RAW264.7 [4]): inactive; Activity (RAW264.7 [5]): Dose-dependent effect; Activity (RAW264.7 [6]): Dose-dependent effect; IC50 (RAW264.7 [7]): 7.4 µM
CC(=O)O[C@@H]1[C@@H](C)/C=C/C(C)(C)C(=O)C[C@@H](OC(C)=O)/C(C)=C/[C@H]2[C@@H](OC(=O)c3ccccc3)[C@@H](C)C[C@]12OC(C)=O	Non-Toxic	inactive	–
CC(=O)O[C@@H]1[C@@H](C)/C=C/C(C)(C)C(=O)C[C@@H](OC(C)=O)/C(C)=C/[C@H]2[C@@H](OC(=O)c3ccccc3)[C@H](C)C[C@]12OC(C)=O	Non-Toxic	inactive	–
CC(=O)O[C@]12C[C@@H](C)[C@H](OC(=O)c3ccccc3)[C@@H]1/C=C(\C)[C@H](OC(=O)c1ccccc1)CC(=O)C(C)(C)/C=C/[C@@H](C)C2=O	Non-Toxic	inactive	–
CC(=O)O[C@@H]1[C@H](C)/C=C/C(C)(C)C(=O)CC/C(C)=C/[C@H]2[C@@H](OC(=O)c3ccccc3)[C@H](C)C[C@]12OC(C)=O	Non-Toxic	inactive	–
CC(=O)O[C@@H]1[C@@H](C)/C=C/C(C)(C)C(=O)C[C@@H](O)/C(C)=C/[C@H]2[C@@H](OC(=O)c3ccccc3)[C@H](C)C[C@]12OC(C)=O	Non-Toxic	inactive	–
CC(=O)O[C@@H]1[C@H](C)/C=C/C(C)(C)C(=O)C[C@@H](O)/C(C)=C/[C@H]2[C@@H](OC(=O)c3ccccc3)[C@H](C)C[C@]12OC(C)=O	Non-Toxic	inactive	–
CC(=O)O[C@]12C[C@@H](C)[C@H](OC(=O)c3ccccc3)[C@@H]1/C=C(\C)C(=O)CC(=O)C(C)(C)C/C=C(\C)C2=O	Non-Toxic	inactive	–
COc1cc(/C=C/c2ccccc2)c(C(=O)O)c(O)c1CC=C(C)C	–	–	inhibition at 15 µM (RAW264.7 [8]): 30.2%
CC(=O)O[C@]12C[C@@H](C)[C@H](OC(=O)c3ccccc3)[C@@H]1/C=C(\C)[C@H](O)CC(=O)C(C)(C)C/C=C(\C)C2=O	Non-Toxic	inactive	–
CC(=O)O[C@]12C[C@H](C)[C@H](OC(=O)c3ccccc3)[C@@H]1/C=C(\C)[C@H](OC(=O)c1ccccc1)CC(=O)C(C)(C)/C=C/[C@@H](C)C2=O	Non-Toxic	inactive	–
CC(=O)O[C@@H]1[C@H](C)/C=C/C(C)(C)C(=O)C[C@@H](OC(=O)c2ccccc2)/C(C)=C/[C@H]2[C@@H](OC(=O)c3ccccc3)[C@H](C)C[C@]12OC(C)=O [EUPHOSCOPIN C]	Non-Toxic	inactive	–
C[C@@H]1C[C@H]2[C@@H]3CCC4=CC(=O)C=C[C@]4(C)[C@@]3(F)[C@@H](O)C[C@]2(C)[C@@]1(O)C(=O)CO [DEXAMETHASONE]	–	–	inhibition at 15 µM (RAW264.7 [8]): 34.2%
